# Data as given in article PMC10057977, “Use of In Vivo Imaging and Physiologically-Based Kinetic Modelling to Predict Hepatic Transporter Mediated Drug–Drug Interactions in Rats” (Pharmaceutics, 2023).
# Columns and labels:
# rOatp1a4 = details: in vitro, cited from earlier work
# [1] = Gadoxetate PBPK model transport parameters; design: species or system rat
# From the text: A previously developed reduced PBPK model of gadoxetate was used in the current study. The PBPK model (Figure 1) is composed of seven compartments: blood, spleen, splanchnic organs, liver interstitial space, hepatocytes, rest of the body (ROB) vascular, and extravascular space. In the ROB compartment, muscles, fat, bones, and skin, among others, are represented.
# A permeability-limited liver model was applied to describe the gadoxetate active uptake into the hepatocytes, as per Equation (1). (1) Vliv,extrdcliv,extr/dt=inputsplan+inputart−Qhcliv,extr/Kliv, extr−b−CLuptake· cliv,extr−CLpassive(cliv,extr−fu,liv, cell cliv,cell)Vliv,celldcliv,cell/dt=CLuptake cliv,extr+CLpassive(cliv,extr−fu,liv, cell cliv,cell)−CLbiliary fu,liv,cell cliv,cell […]
# cliv,extr , cliv,cell [μmol/L] and Vliv,extr , Vliv,int [L] are the gadoxetate concentrations ( c ) and volumes ( V ) of the liver extracellular space and hepatocytes, respectively. […] Details of the model development, relations between concentrations in PBPK compartments and measured ΔR1 , parameters identification, and performance were described previously. […]
"CLbiliary, new value in unified units ([1]; total concentration in hepatocytes)","CLuptake, new value in unified units ([1]; total concentration in the liver interstitial fluid)",SMILES,IC50 (rOatp1a4; read-out: IC50 (µM) rOatp1a4),Ki (rOatp1a4; read-out: Ki (µM) rOatp1a4)
,,CO[C@H]1/C=C/O[C@@]2(C)Oc3c(C)c(O)c4c(O)c(c(/C=N/N5CCN(C)CC5)c(O)c4c3C2=O)NC(=O)/C(C)=C\C=C\[C@H](C)[C@H](O)[C@@H](C)[C@@H](O)[C@@H](C)[C@H](OC(C)=O)[C@@H]1C [Rifampicin],1.3 µM,2.9 µM
0.756 mL/min,36.2 mL/min,"CCOc1ccc(C[C@@H](CN(CCN(CC(=O)[O-])CC(=O)[O-])CC(=O)[O-])N(CC(=O)[O-])CC(=O)[O-])cc1.[Gd+3].[H+].[H+] [gadoxetate, Gadoxetate]",,
